From patent publication US20260217748A1, “IBOGAINE AND N[…] AND METHODS OF USE” (Atai Therapeutics, Inc., priority 2022, published 2026) come the findings set out here.

One data set in a line: Microsome half-life RLM. Type of data set: in vitro ADME. The settings on record: rat, liver microsomes. (In general: Liver microsomes are vesicles of endoplasmic reticulum, rich in cytochrome P450 enzymes.)
The nature of another data set: PBS solubility. Type of data set: physicochemical. The settings on record: aqueous buffer.
A short description of the next data set: Chrom logD. Type of data set: physicochemical.
The next data set has as its target hERG (Homo sapiens, UniProt Q12809). Briefly: hERG Binding assay. On the technique in general: Block of hERG is tested as a sign of cardiac risk.
A further data set deals with SERT (Homo sapiens, UniProt P31645). Put plainly: SERT Cellular Functional assay. Type of data set: cell-based.
Sequence of SERT (P31645 whole entry, species assumed): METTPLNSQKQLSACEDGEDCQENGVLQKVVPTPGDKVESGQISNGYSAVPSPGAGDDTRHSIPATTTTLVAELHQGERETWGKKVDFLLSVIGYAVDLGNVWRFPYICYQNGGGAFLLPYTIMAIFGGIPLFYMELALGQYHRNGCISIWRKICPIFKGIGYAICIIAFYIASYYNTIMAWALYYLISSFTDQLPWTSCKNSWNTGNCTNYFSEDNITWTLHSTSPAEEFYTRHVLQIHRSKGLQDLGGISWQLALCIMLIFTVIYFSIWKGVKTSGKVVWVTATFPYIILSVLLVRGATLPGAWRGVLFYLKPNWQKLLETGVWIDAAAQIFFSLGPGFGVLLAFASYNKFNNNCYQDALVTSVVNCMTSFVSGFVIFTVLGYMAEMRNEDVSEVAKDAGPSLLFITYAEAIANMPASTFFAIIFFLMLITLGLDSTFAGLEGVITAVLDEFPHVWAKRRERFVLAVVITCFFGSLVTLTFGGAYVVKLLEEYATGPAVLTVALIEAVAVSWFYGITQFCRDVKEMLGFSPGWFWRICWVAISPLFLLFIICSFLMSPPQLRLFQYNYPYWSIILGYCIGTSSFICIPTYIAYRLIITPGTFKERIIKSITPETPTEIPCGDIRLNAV

Values after ≈ are worked out from the molar mass of the structure shown. A value given as a limit tells only on which side of the number the result lay.

Sequence of hERG (Q12809 whole entry): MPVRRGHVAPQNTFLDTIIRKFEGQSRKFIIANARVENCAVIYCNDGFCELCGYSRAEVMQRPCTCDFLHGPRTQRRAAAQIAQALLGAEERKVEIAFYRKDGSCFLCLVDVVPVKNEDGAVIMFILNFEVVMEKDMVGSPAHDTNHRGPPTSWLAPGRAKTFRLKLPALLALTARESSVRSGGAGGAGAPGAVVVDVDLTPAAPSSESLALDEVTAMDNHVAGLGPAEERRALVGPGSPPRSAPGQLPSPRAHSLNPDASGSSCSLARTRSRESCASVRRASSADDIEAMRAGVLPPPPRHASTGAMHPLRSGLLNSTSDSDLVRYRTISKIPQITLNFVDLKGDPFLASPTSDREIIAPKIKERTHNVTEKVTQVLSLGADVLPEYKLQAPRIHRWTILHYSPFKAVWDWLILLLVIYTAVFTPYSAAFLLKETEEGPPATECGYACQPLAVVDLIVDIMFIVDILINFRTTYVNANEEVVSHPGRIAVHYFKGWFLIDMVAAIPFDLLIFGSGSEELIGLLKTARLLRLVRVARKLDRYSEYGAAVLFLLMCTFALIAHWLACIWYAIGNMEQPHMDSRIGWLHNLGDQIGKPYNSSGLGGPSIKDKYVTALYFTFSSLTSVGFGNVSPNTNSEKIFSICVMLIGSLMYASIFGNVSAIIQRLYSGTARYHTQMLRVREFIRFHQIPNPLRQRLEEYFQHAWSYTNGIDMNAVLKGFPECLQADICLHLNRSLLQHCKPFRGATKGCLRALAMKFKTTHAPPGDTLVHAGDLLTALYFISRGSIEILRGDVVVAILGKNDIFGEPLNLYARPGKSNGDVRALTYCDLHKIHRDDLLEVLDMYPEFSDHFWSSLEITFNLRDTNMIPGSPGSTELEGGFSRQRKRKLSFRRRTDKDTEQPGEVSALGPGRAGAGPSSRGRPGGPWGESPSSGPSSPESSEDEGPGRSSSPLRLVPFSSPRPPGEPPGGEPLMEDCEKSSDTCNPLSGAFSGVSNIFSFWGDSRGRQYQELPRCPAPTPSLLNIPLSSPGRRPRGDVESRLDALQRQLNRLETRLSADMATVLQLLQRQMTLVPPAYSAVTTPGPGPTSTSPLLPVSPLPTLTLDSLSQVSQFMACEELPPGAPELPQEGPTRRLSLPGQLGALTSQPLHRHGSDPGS

As to `CC[C@H]1CC2C[C@H]3c4[nH]c5ccc(OC(C)OC)cc5c4CC[N@@](C2)C13` (stereo partly drawn) [Compound 3, (6R,7S,9S,11S)-7-ethyl-2-(1-methoxyethoxy)-6,6a,7,8,9,10,12,13-octahydro-5H-6,9-methanopyrido[1′,2′:1,2]azepino[4,5-b]indole], the figures for the half-life in “Microsome half-life RLM” (+NADPH) and in the data set “Microsome half-life RLM” (−NADPH) were 4 min and greater than 200 min, respectively. Further, the solubility (in general, the dissolved amount per volume that the medium holds) in the data set “PBS solubility” turned out to be 245 µM (≈ 86.9 µg/mL). Moreover, in the data set “Chrom logD”, the chromatographic logD (as a rule, a lipophilicity value derived from retention on a column) was 4.9. The IC50 (usually the point on the concentration scale where inhibition reaches its midpoint) was greater than 10 µM on hERG and 11.9 µM on SERT.
